Assay results published in patent EP4813979A1, “COMPOUND FOR EGFR PROTEIN DEGRADATION AND USE THEREOF” (TYK Medicines, Inc., priority 2023, dated 2025).
pIC50: −log10 of the molar value. Read-outs that look alike come from different tables or passages of the source. Each block holds one molecule with its values, some of them ahead of it.

Assays:
A431 = test: Cell anti-proliferation experiment (CTG); format: cell-based; settings: Homo sapiens, A431 (wild-type EGFR), class symbol
Outline: (§1)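 PC-9 (EGFR exon 19 del), H1975 (T790M/L858R), A431 (wild-type EGFR) and a Ba/F3 clone stably expressing mutant EGFR were seeded at 1500-2500 cells/well, left 24 h, then treated in triplicate with 1:4 dilutions up to 10,000 nM for 72 h. CTG luminescence was normalised to 0.1% DMSO and blank medium; IC50 from curve fit.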

A549 = test: Cell anti-proliferation experiment (CTG); format: cell-based; settings: Homo sapiens, A549 (wild-type EGFR), class symbol
Outline: (§2)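 Cells were seeded at 1500–2500/well and dosed after ~24 h with compound in a 1:4 dilution series up to 10,000 nM, in triplicate. Viability was read by CTG luminescence after 72 h, normalized to the 0.1% DMSO control and medium blank, and IC50 was obtained by curve fitting.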

[1] = system: Baf3-19del- T790M -C797S (Baf3-DTC); test: Cell anti-proliferation experiment (CTG); format: cell-based; settings: 72 h, class symbol
Outline: as §1

[2] = system: Baf3-L858R-T790M - C797S (Baf3-LTC); test: Cell anti-proliferation experiment (CTG); format: cell-based; settings: 72 h, class symbol
Outline: as §1

H1975 = test: Cell anti-proliferation experiment (CTG); format: cell-based; settings: Homo sapiens, H1975 (EGFR T790M/L858R), class symbol
Outline: as §1

HCC827 = test: Cell anti-proliferation experiment (CTG); format: cell-based; settings: Homo sapiens, HCC827 (exon 19 deletion), class symbol
Outline: as §2

PC-9 = test: Cell anti-proliferation experiment (CTG); format: cell-based; settings: Homo sapiens, PC-9 (EGFR exon 19 deletion), class symbol
Outline: as §1

[3] = biological target: EGFR in Baf3-19del-T790M-C797S (Homo sapiens, UniProt P00533, C797S/DEL746-750/T790M); test: EGFR PROTAC HTRF experiment (total EGFR degradation); format: cell-based
Protocol: (§3) [table] Among them, B[…] -C797S (abbreviated as Baf3-DTC) is a stable Ba/F3 clone expressing exogenous EGFR gene bearing T790M, C797S and […] triple amino acid mutations, purchased from KYinno; Baf3-L858R-T790M - C797S (abbreviated as Baf3-LTC) is a stable Ba/F3 clone expressing exogenous EGFR gene bearing […], T790M, C797S triple mutations, purchased from KYinno. [table] [table] Dilutded Eu and d2 antibodies 2μl per well with detection buffer 20-fold. Then mixed the two antibody vials thoroughly. [table] Opened EnVision , locate the HTRF program, configured the board, and then read […]. The fitted curve, DC50 and Dmax of this compound could be generated using GraphPad Prism .

[4] = biological target: EGFR in Baf3-L858R-T790M-C797S (Homo sapiens, UniProt P00533, C797S/L858R/T790M); test: as above; format: cell-based
Protocol: as §3

[5] = Pharmacokinetic test of CD-1 mice; format: in vivo; parameters: AUC(0-t) / AUC(0-inf): concentration or dose not given beside the values; settings: male CD-1 mice, single oral gavage (PO), plasma; for AUC(0-inf) / AUC(0-t) / Cmax / MRT last / Tmax: mouse
Protocol: Plasma was collected from male CD-1 mice after a single gavage administration of the test substance. The plasma was then analyzed to calculate pharmacokinetic parameters.
The solvent is 5% DMSO + 10% Solutol HS-15 + 85% Saline.
Formulation preparation process: Accurately weighed the compound powder, added appropriate volumes of DMSO, Solutol and physiological saline in sequence, and vortexed sonicate at each step to finally form a homogeneous formulation solution.
Experimental animals were housed in the SPF-grade animal facility of Suzhou Xihua New Drug Development Co., Ltd. (License No.: SYXK(Su)2021-0019). Animals were fed normally for at least 3 days after purchase before the experiment, and each mouse was marked with a tail tag. Animals in the oral administration group were fasted overnight the day before administration, and were resumed feeding 4 hours later, with free access to water. Table 4. Sources and Number of Experimental Animals […]
Before administration, checked the state of the administration formulation and ensured its homogeneity by vortexing, stirring or shaking. Calculated the theoretical administration volume for each CD-1 mouse in each group according to the following formula. Theoretical administration volume (mL); = (Dose (mg⋅kg^−1))/(formulation concentration (mg⋅mL^−1)) × animal body weight (kg) [formula]
Table 5 Sample Collection Information
The collected blood was placed in test tubes containing the anticoagulant EDTA-K2 (15 % EDTA-K2 solution), stored on moist ice, and centrifuged within 45 min (1,500 g, 2-8 °C, 10 min). Plasma was then collected. The plasma was stored in pre-chilled centrifuge tubes, flash-frozen on dry ice, and subsequently stored in an ultra-low temperature freezer at -60 °C or lower until shipment.
A quantitative detection method for the analyte was established using Shimadzu liquid chromatography and Triple Quad™ 6500+AB mass spectrometry. The concentration of the parent drug in plasma was analyzed. The analytical results were controlled for variation using quality control samples, with the accuracy of the quality control samples expected to be between 80% and 120%.
The main pharmacokinetic parameters were calculated using a non-compartmental model in Winnonlin Phoenix software. These parameters included the area under the curve (AUC(0-t) and AUC(0-∞)), elimination half-life (T1/2), maximum plasma concentration (Cmax ), and time to reach maximum plasma concentration (Tmax).

Chain of EGFR in Baf3-L858R-T790M-C797S (P00533 25-1210 T790M/C797S/L858R): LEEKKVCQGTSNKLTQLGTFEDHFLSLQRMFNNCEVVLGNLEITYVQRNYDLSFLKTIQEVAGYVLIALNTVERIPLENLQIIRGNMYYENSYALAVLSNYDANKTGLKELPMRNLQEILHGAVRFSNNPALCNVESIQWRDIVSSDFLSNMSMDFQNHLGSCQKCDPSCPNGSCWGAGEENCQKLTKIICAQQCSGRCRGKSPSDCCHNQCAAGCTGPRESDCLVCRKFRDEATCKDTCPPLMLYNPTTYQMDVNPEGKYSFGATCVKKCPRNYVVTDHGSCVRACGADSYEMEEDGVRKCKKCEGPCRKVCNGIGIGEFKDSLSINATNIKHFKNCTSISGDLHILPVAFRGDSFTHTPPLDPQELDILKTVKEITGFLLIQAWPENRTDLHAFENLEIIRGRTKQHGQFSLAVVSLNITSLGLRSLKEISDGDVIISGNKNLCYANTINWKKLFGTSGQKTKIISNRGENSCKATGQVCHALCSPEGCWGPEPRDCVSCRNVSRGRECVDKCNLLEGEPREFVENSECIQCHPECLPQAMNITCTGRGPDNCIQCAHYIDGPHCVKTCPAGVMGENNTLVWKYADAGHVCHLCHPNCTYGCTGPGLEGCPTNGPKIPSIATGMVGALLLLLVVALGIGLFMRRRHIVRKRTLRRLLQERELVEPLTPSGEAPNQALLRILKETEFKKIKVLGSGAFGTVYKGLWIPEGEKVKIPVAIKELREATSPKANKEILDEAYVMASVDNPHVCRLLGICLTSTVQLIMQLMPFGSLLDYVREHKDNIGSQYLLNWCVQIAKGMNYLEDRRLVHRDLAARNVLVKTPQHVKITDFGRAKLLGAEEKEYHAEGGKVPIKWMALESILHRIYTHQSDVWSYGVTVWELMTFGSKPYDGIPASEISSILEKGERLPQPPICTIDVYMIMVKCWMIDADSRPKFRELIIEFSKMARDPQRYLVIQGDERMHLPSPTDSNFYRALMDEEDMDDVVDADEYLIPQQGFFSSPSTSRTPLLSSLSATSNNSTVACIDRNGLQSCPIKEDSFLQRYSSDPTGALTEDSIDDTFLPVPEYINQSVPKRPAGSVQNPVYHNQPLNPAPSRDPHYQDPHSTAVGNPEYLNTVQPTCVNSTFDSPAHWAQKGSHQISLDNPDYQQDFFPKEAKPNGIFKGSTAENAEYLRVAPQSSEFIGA
Chain of EGFR in Baf3-19del-T790M-C797S (P00533 with tags, fused parts or gaps DEL746-750/T790M/C797S): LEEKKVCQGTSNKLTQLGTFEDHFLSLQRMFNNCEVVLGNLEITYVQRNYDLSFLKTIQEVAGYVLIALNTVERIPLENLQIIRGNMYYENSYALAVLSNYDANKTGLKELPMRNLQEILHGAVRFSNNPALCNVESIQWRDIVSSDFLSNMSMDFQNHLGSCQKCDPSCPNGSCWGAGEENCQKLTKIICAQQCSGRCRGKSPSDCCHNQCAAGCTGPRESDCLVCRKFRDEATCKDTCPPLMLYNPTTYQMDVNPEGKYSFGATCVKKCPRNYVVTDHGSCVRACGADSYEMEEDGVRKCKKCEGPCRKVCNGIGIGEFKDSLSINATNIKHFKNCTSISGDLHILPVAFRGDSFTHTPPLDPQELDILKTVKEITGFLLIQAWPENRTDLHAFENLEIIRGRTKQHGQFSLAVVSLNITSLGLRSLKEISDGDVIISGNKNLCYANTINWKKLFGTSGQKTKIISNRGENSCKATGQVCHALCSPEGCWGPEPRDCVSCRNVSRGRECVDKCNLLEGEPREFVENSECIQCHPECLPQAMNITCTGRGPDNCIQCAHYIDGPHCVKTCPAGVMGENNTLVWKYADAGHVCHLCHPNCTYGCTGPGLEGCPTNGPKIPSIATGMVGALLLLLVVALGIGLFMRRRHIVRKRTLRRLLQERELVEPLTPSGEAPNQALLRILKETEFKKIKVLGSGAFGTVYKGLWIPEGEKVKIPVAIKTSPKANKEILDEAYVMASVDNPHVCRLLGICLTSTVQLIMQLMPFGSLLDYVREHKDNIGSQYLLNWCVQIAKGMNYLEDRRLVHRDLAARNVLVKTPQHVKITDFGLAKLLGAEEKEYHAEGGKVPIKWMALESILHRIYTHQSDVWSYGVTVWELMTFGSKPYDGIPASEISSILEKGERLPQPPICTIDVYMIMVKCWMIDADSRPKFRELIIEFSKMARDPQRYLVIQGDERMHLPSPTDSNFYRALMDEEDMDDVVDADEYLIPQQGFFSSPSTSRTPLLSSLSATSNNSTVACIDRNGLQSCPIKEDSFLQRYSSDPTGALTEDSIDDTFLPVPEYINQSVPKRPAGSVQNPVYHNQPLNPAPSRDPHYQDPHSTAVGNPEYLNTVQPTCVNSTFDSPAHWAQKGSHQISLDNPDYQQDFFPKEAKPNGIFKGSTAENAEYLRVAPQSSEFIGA

pIC50 (A431; A-431, 72 h): < 6.00
pIC50 (A549; A549, 72 h): < 6.00
pIC50 [1]: 7.00 to 8.00
pIC50 [2]: 7.00 to 8.00
pIC50 (H1975; NCI-H1975, 72 h): 7.00 to 8.00
pIC50 (HCC827; HCC827, 72 h): < 6.00
pIC50 (PC-9; PC-9, 72 h): < 6.00
DC50 ([3]; Baf3-DTC, incubated 16 hours, HTRF total EGFR; read-out: Baf3-DTC DC50): 0.1 to 1 µM
Dmax ([3]; Baf3-DTC, incubated 16 hours, HTRF total EGFR; read-out: Baf3-DTC Dmax): 70 to 100%
DC50 ([4]; Baf3-LTC, incubated 16 hours, HTRF total EGFR; read-out: Baf3-LTC DC50): 0.1 to 1 µM
Dmax ([4]; Baf3-LTC, incubated 16 hours, HTRF total EGFR; read-out: Baf3-LTC Dmax): 70 to 100%
HL_ [5]: 2.67 h
AUC(0-inf) [5]: 28.8 µg·h/mL
AUC(0-t) [5]: 28.8 µg·h/mL
Cmax [5]: 3.17 µg/mL
MRT last [5]: 6.01 h
Tmax [5]: 2 h
Compound: CCc1cc(Nc2ncc(Br)c(Nc3ccccc3C(=O)NC)n2)c(OC)cc1N1CCN(C(=O)CN2CCC(c3cc4c(cc3F)c(N3CCC(=O)NC3=O)nn4C)C(F)(F)C2)CC1 (centres unmarked) [TA-004]

Compound: CCc1cc(Nc2ncc(Cl)c(Nc3ccccc3C(=O)NC)n2)c(OC)cc1N1CCN(C(=O)CN2CCC(c3ccc4c(N5CCC(=O)NC5=O)nn(C)c4c3)C(F)(F)C2)CC1 (centres unmarked) [Comparative Example 1-1, reference compound]
pIC50 (A431; A-431, 72 hours): 6.00 to 7.00
pIC50 (A549; 72 hours): 7.00 to 8.00
pIC50 (H1975; NCI-H1975, 72 hours): 7.00 to 8.00
pIC50 (HCC827; 72 hours): 6.00 to 7.00
pIC50 (PC-9; 72 hours): 6.00 to 7.00
DC50 ([3]; read-out: Baf3-DTC DC50; Baf3-DTC, incubated 16 hours, HTRF total EGFR): 0.01 to 0.1 µM
Dmax ([3]; read-out: Baf3-DTC Dmax): 70 to 100%
DC50 ([4]; read-out: Baf3-LTC DC50; Baf3-LTC, incubated 16 hours, HTRF total EGFR): 0.01 to 0.1 µM
Dmax ([4]; read-out: Baf3-LTC Dmax): 70 to 100%
HL_ [5]: 2.41 h
AUC(0-inf) [5]: 14.3 µg·h/mL
AUC(0-t) [5]: 14.3 µg·h/mL
Cmax [5]: 1.74 µg/mL
MRT last [5]: 6.06 h
Tmax [5]: 2 h

Compound: CCc1cc(Nc2ncc(Cl)c(Nc3ccccc3P(C)(C)=O)n2)c(OC)cc1N1CCN(C(=O)CN2CCC(c3cc4c(cc3F)c(N3CCC(=O)NC3=O)nn4C)C(F)(F)C2)CC1 (centres unmarked) [TA-005]
HL_ [5]: 2.28 h
AUC(0-inf) [5]: 36.3 µg·h/mL
AUC(0-t) [5]: 36.3 µg·h/mL
Cmax [5]: 5.97 µg/mL
MRT last [5]: 4.59 h
Tmax [5]: 1 h
